Experimental data as given in paper PMC10427817, “Bioactivities of β-mangostin and its new glycoside derivatives synthesized by enzymatic reactions” (Royal Society Open Science, 2023).
Read-outs that look alike come from different tables or passages of the source.

Key:
[1] = tested on: HEK293 embryonic kidney cells; assay: MTT cytotoxicity assay, HEK293; format: cell-based, human; settings: Homo sapiens, HEK293 healthy cell line, 72 h, mean ± s.d., three replicates
Experimental: The cytotoxic activities against the cancer cell lines KB epidermal carcinoma, A549 lung cancer, HepG2 liver cancer and MCF-7 breast cancer, as well as the healthy cell line HEK293 embryonic kidney cells, were determined using the 3-(4,5-dimethylthiazol-2-yl)-2,5-diphenyltetrazolium bromide (MTT) assay. Briefly, cell lines were grown into log phase at 37°C, 5% CO2 in DMEM-Dulbecco's modified Eagle's medium and 10% fetal bovine serum. A concentration of 1 × 10^4–3 × 10^4 cells ml^−1 was prepared depending on the cell line used for the experiment by adding 10 µl of the sample and 190 µl of the cell suspension, followed by incubation under standard conditions. After 72 h of culture, 10 µl of MTT (5 mg ml^−1) was added and incubated for 4 h. Dimethyl sulfoxide (100 µl) was added to dissolve formazan crystals and the density was measured at 540 nm using a BioTek spectrophotometer. The inhibition of cell growth was expressed as IC50 (the half-maximal inhibitory concentration) value. Ellipticine was used as reference.

α-glucosidase = target: T1, α-glucosidase (Saccharomyces cerevisiae, UniProt P53341); assay: Alpha-glucosidase inhibitory assay; format: biochemical
T1 construct: purchased Sigma
T1 sequence (P53341 whole entry): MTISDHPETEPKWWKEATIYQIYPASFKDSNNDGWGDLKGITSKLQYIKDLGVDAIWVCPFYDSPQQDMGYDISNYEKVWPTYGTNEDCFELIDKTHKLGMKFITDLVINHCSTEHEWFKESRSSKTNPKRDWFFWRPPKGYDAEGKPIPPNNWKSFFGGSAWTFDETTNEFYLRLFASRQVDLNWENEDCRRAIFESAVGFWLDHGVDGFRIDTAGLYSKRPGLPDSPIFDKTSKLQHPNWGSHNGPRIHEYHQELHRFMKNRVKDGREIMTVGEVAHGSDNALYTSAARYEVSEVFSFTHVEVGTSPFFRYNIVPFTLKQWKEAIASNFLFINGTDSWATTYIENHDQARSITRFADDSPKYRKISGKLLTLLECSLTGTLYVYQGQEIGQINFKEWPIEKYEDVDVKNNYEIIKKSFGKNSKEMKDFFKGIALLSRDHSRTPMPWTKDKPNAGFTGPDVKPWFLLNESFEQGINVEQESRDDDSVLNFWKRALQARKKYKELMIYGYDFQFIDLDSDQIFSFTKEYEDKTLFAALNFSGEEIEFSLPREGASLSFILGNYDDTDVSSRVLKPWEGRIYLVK
Experimental: Beta-mangostin and α-mangostin were purchased from Chengdu Biopurify Phytochemicals, Ltd. Recombinant Escherichia coli (BL21 (DE3)) strains were kindly provided by Prof. Jae Kyung Sohng, Sun Moon University, Korea. The cell lines and microorganisms were derived from the American Type Culture Collection (ATCC). α-Glucosidase (CAS no. 900-42-7, Sigma) was from Saccharomyces cerevisiae. All chemicals were of analytical grade and available.
The α-glucosidase inhibitory activity assay was conducted using a reaction mixture containing phosphate buffer (100 mM; pH 6.8), p-nitrophenyl-α-D-glucopyranoside (pNPG) (2.5 mM) and samples at various concentrations. The reactions were initiated by adding α-glucosidase (0.2 U ml^−1), incubated at 37°C for 30 min and quenched by adding Na2CO3 (50 mM). The absorbance of the reaction was determined using a BioTek instrument at a wavelength of 410 nm (A).

Escherichia coli = assay: Anti-microbial activity assay, E. coli; format: cell-based
Experimental: Bacterial and fungal strains (Bacillus subtilis, Staphylococcus aureus, Lactobacillus fermentum, Escherichia coli, Pseudomonas aeruginosa, Salmonella enterica and Candida albicans) were activated on TSA (Tryptic Soy Agar) and SA (Sabouraud–4% dextrose agar) media, respectively. Before the experiment, the microbial strains were grown in the corresponding liquid media at a concentration of approximately 5 × 10^5 CFU ml^−1 for bacteria and 1 × 10^3 CFU ml^−1 for fungi. The microbial suspension (190 µl) was mixed with 10 µl of the test sample, which was serially diluted twofold, and the microplate was incubated at 37°C for 16–24 h.

[2] = tested on: hepatocellular carcinoma cell lines (Huh-7, SK-Hep-1, HA22T/VGH cell lines); settings: cited from earlier work
HeLa and SiHa cells = settings: cited from earlier work

COc1cc2oc3cc(O)c(OC)c(CC=C(C)C)c3c(=O)c2c(O)c1CC=C(C)C [β-mangostin]
IC50 [1]: 15.6 ± 6.5 µM | IC50 (α-glucosidase): 27.6 ± 4.6 µM | inhibitory potency ratio (α-glucosidase; compared with the positive control acarbose): 7.55 | MIC (Escherichia coli): greater than 32 μg ml^−1 | IC50 (Escherichia coli; Escherichia coli): > 32 µg/mL | MIC (Escherichia coli; Escherichia coli, read-out: MIC): > 32 µg/mL | cytotoxicity or cell cycle suppression [2]: did not cause cytotoxicity or cell cycle suppression | cytotoxicity or cell cycle suppression (HeLa and SiHa cells): did not cause cytotoxicity or cell cycle suppression
